This note sets out measurements from patent publication US20150133411A1, “COMPOUNDS WITH TRPV4 ACTIVITY, COMPOSITIONS AND ASSOCIATED METHODS THEREOF” (The University of Utah Research Foundation, priority 2012, published 2015).

In one experiment the test system is MB model of glaucoma. Description: IOP time course after single eye drop in MB model of glaucoma. Type of experiment: in vivo, mouse. Particulars: eye drop. The protocol:
Specifically, microbeads (MBs) were injected into the anterior chamber of a mouse eye as described in Example 2 with PBS-injected eyes used as controls. Compound 1 (10 mg/kg body weight) (or PBS vehicle) was injected intraperitoneally (IP). […] IOP was measured in mice between 10:00 AM and 1:00 PM with the TonoLab rebound tonometer (Colonial Medical Supply, Franconia, NH/Tyolat, Helsinki, Finland). Mice were sedated with IP injection of Avertin with final amount calculated by weight (e.g., 0.5 ml for 21-24 g animals). Animals were placed on a jack stand platform and the tonolab was clamped on a ring stand and centered onto the mid-cornea. During measurements animal were neither restrained nor touched. Each eye was measured twenty consecutive times, the highest and lowest values were discarded and the values were averaged.
FIG. 9 illustrates the short-term effects of a single dose of Compound 1 (eye drop) in the MB model of glaucoma. IOP was measured as described in Example 3 at the indicated time points after receiving a drop of Compound 1. Compound 1 reduced IOP beginning at 1 hour after dosing and continued through 6 hours after dosing.
FIG. 10 illustrates a time course of Compounds 1, 2, 5 and Compound 2-HCl as well as a positive control compound, timolol, with regard to inhibition of IOP. The experiment was conducted as described in Example 9. Each of the TRPV4 antagonists reduced IOP with a similar time course. Specifically, Compounds 1, 2, 5 and Compound 2-HCl reduced IOP for at least 6 hours after dosing.
FIG. 11 illustrates a time course of Compound 2-HCl activity. The experiment was conducted as described in Example 9. […] 2
FIG. 12 illustrates a comparison of the time course of Compound 2-HCl and Compound 5. The experiment was conducted as described in Example 9.

The test system of the next experiment is Müller cells. Description: Arachidonic acid-induced [Ca2+]i in Müller cells. Type of experiment: cell-based. The note with it: 10 μM. As for the experimental part:
This response is blocked by Compound 1 (1 μM).

Experiment [1] deals with T1, TRPV4 (Mus musculus, UniProt Q9EPK8). Briefly: AGB cation influx into retinal cells (anti-AGB antibody). It is filed as cell-based. Details: these two cell types express TRPV4 channels in the mouse retina; from tissue; host or cells: mouse retina (retinal ganglion cells and Müller glial cells). Particulars: mouse retina; agonist alone. The protocol:
FIG. 16 illustrates the effect of the TRPV4 agonist GSK on cation influx into mouse retinal cells of the mouse retina. The influx was determined using the anti-AGB antibody, as described by Marc R E (J Comp Neurol 407(1): 47-64, 1999). AGB is a membrane permeant cation that can flow through most known cation channels. Using an anti-AGB antibody, it can be determined where the cation flux occurs and, therefore, which cells are activated.

The test system of experiment [2] is retinal ganglion cells. Description: In vivo intraocular injection of GSK, NeuN+ RGC count. The note with it: intraocular injection 100-300 nM, retinas after 48 hours. As for the experimental part: In this experiment, GSK (100-300 nM) was injected intraocularly with a Hamilton syringe. Retinas were isolated after 48 hours, fixed and labeled with the RGC marker antibody NeuN. NeuN-immunopositive somata in the ganglion cell layer, shown in the panel on the right, were counted. The bar graph represents quantification of NeuN^+ cells in the indicated experimental groups.

For experiment [3], the target named is T1, TRPV4. Description: GSK-evoked [Ca++]i in retinal Müller glial cells. Type of experiment: cell-based. Also noted: endogenous in cells; host or cells: retinal Müller glial cells. Particulars: retinal Müller glial cells; agonist alone.
Experiment [4] concerns retinal ganglion cells. Briefly: TUNEL assay of apoptotic cell death in retinas. Type of experiment: cell-based. As for the experimental part: Terminal deoxynucleotidyl transferase-mediated dUTP-biotin nick end labeling (TUNEL) is a common method for detecting fragmentation that results from apoptotic signaling cascades. Retinas were embedded, cryosectioned, and processed for the TUNEL assay following the protocol by Gavrieli et al. (1992). After 30 min. rehydration in 70% ethanol, 2×5 min. rinses in PBS and 1% Triton-X in 1% citrate buffer (pH 7.3), the slides were subjected to a final rinse in PBS. Slides were then incubated for 30 min. in the reaction buffer (30 mM Trizma-HCl, 140 mM cacodylate, 1.0 mM CaCl2, 0.2% Triton X-100, pH 7.2). Positive controls were treated with DNAse I (Roche Diagnostics; Branford, Conn.; 10 U/ml) in the reaction buffer. Next, slides were treated for 1 hour with 0.03 units/μl terminal transferase and 4 μM biotin-16-dUTP (Roche Diagnostics). The reaction was terminated in 30 mM Na+ citrate, 300 mM NaCl and 0.2% Triton X-100 in PBS (5 min.) and rinsed in PBS (2×5 min), exposed to 1% bovine serum albumin in PBS for 20 min and rinsed. Apoptotic cells were visualized with a confocal microscope (Zeiss LSM510) and categorized by size. […] This was blocked by RuR and by the TRPV4 antagonist Compound 1.

Experiment [5] addresses T2, TRPV4 (Homo sapiens, UniProt Q9HBA0).
T2 construct: endogenous in cells; host or cells: primary human trabecular meshwork cells from trabeculectomy tissue
Briefly: Fura-2 calcium imaging of human trabecular meshwork (TM) cells. The note with it: bath application 100 nM. It is filed as cell-based. The protocol:
Pieces of tissue were isolated from a trabeculectomy. Trabecular meshwork cells (TM) were kept in cold L15 medium and then loaded with Fura-2 (10 μm) for 1 hour. Fibroblast-shaped cells were imaged from a TM chunk (˜500 μm×500 μm) with a 40× water immersion objective. The sampling rate was at 6 second intervals. Krebs Ringer Bicarbonate Recording buffer (7.4, 284 mOsm) was prepared as reported by Anthony et al., 1998, IOVS; Prostaglandin F2α receptors in the human trabecular meshwork.
Calcium imaging was performed on TM cells isolated from human patients. In brief, dissociated human TM cells embedded within the tissue were dissociated and plated on concanavalin A-coated (0.2 mg/ml; Sigma) coverslips, loaded with fura-2 AM ([…]; Invitrogen Life Technologies) for 15 min-1 hour and washed for 10 min in dye-free L-15 medium. […] Fluorescence emission was high-pass filtered at 510 nm and captured with cooled digital CCD cameras (HQ2, Photometrics). […] Fluorescence imaging was performed on regions of interest (ROIs) encompassing the TM cell somata, typically at 3×3 binning. Background fluorescence was measured in similarly sized ROIs in neighboring areas devoid of cells. After sequential image acquisition (0.167-0.5 Hz) of cell fluorescence at 340/380 nm, the background was subtracted. […]

Experiment [6] relates to retinal neurons (RGCs) and glia (Müller cells). Briefly: Hypotonic stimuli: cell swelling (change in cell area) and [Ca++]i. Type of experiment: cell-based. Particulars: hypotonic stimuli, 300 mOsm to 190 mOsm. An excerpt: FIG. 18A illustrates the effect of hypotonic stimuli on cell swelling as measured by change in cell area. Hypotonic stimuli were generated by replacing extracellular sodium levels to lower osmolarity from 300 mOsm to 190 mOsm.

T1 sequence (Q9EPK8 whole entry): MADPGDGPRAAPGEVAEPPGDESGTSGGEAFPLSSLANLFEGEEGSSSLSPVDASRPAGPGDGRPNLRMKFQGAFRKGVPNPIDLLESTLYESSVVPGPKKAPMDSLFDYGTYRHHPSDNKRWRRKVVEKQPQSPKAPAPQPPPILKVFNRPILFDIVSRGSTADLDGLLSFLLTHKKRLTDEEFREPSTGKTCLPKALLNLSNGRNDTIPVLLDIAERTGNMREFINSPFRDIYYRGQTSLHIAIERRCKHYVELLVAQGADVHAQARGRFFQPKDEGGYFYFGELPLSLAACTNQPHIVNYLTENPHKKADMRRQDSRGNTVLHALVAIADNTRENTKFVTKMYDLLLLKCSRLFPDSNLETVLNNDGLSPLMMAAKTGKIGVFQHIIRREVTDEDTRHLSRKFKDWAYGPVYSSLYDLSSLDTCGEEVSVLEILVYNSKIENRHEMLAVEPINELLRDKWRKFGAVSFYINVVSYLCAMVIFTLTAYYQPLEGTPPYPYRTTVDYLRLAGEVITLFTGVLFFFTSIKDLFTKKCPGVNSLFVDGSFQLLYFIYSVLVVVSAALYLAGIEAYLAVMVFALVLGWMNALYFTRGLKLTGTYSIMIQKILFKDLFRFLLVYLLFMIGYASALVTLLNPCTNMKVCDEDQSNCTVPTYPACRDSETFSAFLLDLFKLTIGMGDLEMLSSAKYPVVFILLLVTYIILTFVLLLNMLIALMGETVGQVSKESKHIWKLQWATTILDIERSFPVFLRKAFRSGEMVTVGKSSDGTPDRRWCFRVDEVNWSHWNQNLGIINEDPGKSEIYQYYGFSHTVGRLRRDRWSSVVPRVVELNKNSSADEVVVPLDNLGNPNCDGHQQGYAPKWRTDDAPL
T2 sequence (Q9HBA0 whole entry): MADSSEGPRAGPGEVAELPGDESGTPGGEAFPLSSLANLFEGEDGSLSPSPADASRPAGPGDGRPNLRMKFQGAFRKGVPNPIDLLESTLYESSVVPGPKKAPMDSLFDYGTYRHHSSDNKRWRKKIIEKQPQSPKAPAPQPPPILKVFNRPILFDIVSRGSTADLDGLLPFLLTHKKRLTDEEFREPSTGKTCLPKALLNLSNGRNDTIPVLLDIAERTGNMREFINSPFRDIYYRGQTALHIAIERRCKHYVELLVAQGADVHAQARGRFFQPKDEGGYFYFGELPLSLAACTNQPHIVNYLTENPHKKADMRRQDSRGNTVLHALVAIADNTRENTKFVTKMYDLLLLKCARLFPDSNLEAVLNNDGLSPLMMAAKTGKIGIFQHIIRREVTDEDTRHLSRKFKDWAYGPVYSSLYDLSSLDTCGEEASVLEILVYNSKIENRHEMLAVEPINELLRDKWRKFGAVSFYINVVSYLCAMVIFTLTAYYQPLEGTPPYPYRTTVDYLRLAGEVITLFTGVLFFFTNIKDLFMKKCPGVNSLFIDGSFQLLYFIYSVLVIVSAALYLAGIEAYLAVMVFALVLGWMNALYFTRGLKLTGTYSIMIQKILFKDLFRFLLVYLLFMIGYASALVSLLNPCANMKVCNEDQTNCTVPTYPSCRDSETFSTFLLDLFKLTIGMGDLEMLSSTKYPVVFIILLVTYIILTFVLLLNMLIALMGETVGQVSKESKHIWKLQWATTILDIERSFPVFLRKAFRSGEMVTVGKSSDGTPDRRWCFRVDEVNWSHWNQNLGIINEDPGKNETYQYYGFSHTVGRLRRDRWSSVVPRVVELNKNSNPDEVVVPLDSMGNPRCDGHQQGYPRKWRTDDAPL

For `Cc1c(C(=O)Nc2cccc(C(=O)OC(C)C)c2)cc(-c2ccccc2)n1CCCN1CCOCC1.Cl` [Compound 2-HCl, iso-propyl 3-(2-methyl-1-(3-morpholinopropyl)-5-phenyl-1H-pyrrole-3-carboxamido)benzoate hydrochloride], the “time of maximal inhibition of IOP” value in the experiment on MB model of glaucoma (after dosing) is 6 h.
With `CC(C)(C)NC[C@H](O)COc1nsnc1N1CCOCC1` [timolol, reference compound], the “dose-response curve for inhibition of IOP relative to TRPV4 antagonists” value in the experiment with MB model of glaucoma (positive control) is reported as “left-shifted dose-response curve”.
Take `CCCCC/C=C\C/C=C\C/C=C\C/C=C\CCCC(=O)O` [arachidonic acid, reference compound]: the “[Ca2+]i response” value in the experiment on Müller cells was “increase in [Ca2+]i”.
With `CC(C)C[C@H](NC(=O)c1cc2ccccc2s1)C(=O)N1CCN(C(=O)[C@H](CO)NS(=O)(=O)c2ccc(Cl)cc2Cl)CC1` [GSK1016790A, reference compound], the “number of AGB+ cells (cation influx)” value at TRPV4 [1] is “increased the number of AGB^+ retinal ganglion cells and Müller glial cells”. Also, in the experiment on retinal ganglion cells [2], the “number of retinal ganglion cells (NeuN+ somata)” value was “substantially reduces the number of retinal ganglion cells”. The “intracellular calcium concentration [Ca++]i” value at TRPV4 [3] is “evokes sustained increases”. Besides, the “death of retinal ganglion cells (TUNEL staining)” value in the experiment on retinal ganglion cells [4] (100 nM, agonist alone) is recorded as “induced death of retinal ganglion cells”. Moreover, the “340/380 fluorescence ratio (intracellular calcium [Ca++]i)” value on TRPV4 [5] is recorded as “increased 340/380 fluorescence ratio”.
As to `N.N.N.N.N.N.N.N.N.N.N.N.N.N.[Cl-].[Cl-].[Cl-].[Cl-].[Cl-].[Cl-].[O-2].[O-2].[Ru+3].[Ru+3].[Ru+4]` [Ruthenium Red], in the experiment with retinal ganglion cells [4] (190 mOsm saline, Compound 1 1 uM, RuR 10 μM), the “apoptotic cell death induced by hypotonic swelling (TUNEL)” value is recorded as “block apoptotic cell death”. Also, in the experiment with retinal ganglion cells [4] (GSK 100 nM, Compound 1 1 uM, RuR 10 μM), the “apoptotic cell death induced by TRPV4 agonist GSK (TUNEL)” value was “block apoptotic cell death”.
Take `CC(=O)OCOC(=O)CN(CC(=O)OCOC(C)=O)c1ccccc1OCCOc1ccccc1N(CC(=O)OCOC(C)=O)CC(=O)OCOC(C)=O` [BAPTA-AM, reference compound]: the “cell swelling (change in cell area)” value in experiment [6] was “significantly reduced”.
